Source: ChEMBL document CHEMBL1158651, “Centaurepensin: A Cytotoxic Constituent of Centaurea solstitialis and C. repens (Asteraceae)” (1979)
≈ marks a conversion by molar mass, not a printed value.

Experiment: Cytotoxicity against human 9KB cells
Format: functional
Details: read-out: ED50 (the source's name)

SMILES: C=C1C(=O)O[C@H]2[C@H]1[C@@H](OC(=O)[C@](C)(O)CCl)CC(=C)[C@@H]1C[C@H](O)[C@](O)(CCl)[C@H]21 [CENTAUREPENSIN]
- EC50: 1.7 µg/mL (≈ 3.91 µM)
